The values below come from patent USRE46792E1, “Oxazole compound and pharmaceutical composition” (Otsuka Pharmaceutical Co., Ltd., priority 2005, dated 2018).

Molecules are shown by their SMILES.

Chain of human PDE4D3 (PDE4D) (Q08499 other isoform, or with tags, fused parts or gaps): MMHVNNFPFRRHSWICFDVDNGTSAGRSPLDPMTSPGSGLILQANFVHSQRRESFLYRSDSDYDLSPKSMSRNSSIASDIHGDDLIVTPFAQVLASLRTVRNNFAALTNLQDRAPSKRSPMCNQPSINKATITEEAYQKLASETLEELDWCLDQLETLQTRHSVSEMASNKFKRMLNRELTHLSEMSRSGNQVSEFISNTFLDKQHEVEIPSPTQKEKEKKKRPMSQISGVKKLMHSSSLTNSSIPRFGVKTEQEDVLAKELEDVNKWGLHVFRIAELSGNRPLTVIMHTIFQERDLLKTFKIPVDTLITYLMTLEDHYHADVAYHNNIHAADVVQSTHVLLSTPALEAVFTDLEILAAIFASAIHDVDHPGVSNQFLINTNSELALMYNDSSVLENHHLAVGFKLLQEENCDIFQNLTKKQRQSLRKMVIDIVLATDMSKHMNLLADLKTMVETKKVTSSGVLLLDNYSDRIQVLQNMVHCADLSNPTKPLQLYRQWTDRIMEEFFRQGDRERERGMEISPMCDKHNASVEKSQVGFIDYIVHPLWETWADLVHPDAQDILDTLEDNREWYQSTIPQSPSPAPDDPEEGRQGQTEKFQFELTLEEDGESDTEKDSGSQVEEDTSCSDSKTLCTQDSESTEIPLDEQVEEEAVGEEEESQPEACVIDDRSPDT

This test has as its target human PDE4D3 (PDE4D) (Homo sapiens (Human), UniProt Q08499). As to the kind of experiment: Phosphodiesterase (PDE)4 inhibitory activity evaluation test ([3H]cAMP hydrolysis by PDE4D enzyme solution). Type of test: biochemical. The settings on record: recombinant human PDE4D3 expressed in COS-7 cells; [3H]cAMP substrate; 10 min at 30° C.; 2% DMSO. From the text: Phosphodiesterase (PDE)4 Inhibitory Activity Evaluation Test
(1) Large Scale Plasmid Preparation
Plasmid containing genes (HPDE4D) coding for human PDE4D3 cDNA (stored in Otsuka America Pharmaceutical, Inc., Maryland Research Laboratories) was transformed in E. coli, cultured on a large scale, and purified using an EndoFree™ Plasmid Maxi Kit (Qiagen).
(2) Abundant Expression and Purification of PDE4D
COS-7 cells derived from African green monkey kidneys were passage cultured in D-MEM media containing 100 units/ml penicillin, 100 μg/ml streptomycin, and 10% FBS. The cells were transfected with the plasmid prepared in (1) above using Lipofectamine™ 2000 (hereinafter referred to as “LF2000”, Invitrogen), following the manufacturer's protocol. The COS-7 cells were inoculated in a 10 cm culture dish on the previous day so as to be 90% confluent on the day of transfection. Culture dishes each containing a plasmid solution (solution A) in which 24 μg of plasmid was diluted in 1.5 ml Opti-MEM I Reduced Serum Medium (Invitrogen) and an LF2000 solution (solution B) in which 60 μl of LF2000 was diluted in 1.5 ml Opti-MEM I Reduced Serum Medium were separately allowed to stand for 5 minutes at room temperature. Solutions A and B were then mixed and the mixture was allowed to stand for 20 minutes at room temperature. The mixture was added to the cultured cells, and incubated at 37° C. (5% CO2) overnight. On the following day, the medium was replaced, and the mixture was further incubated overnight to harvest the cells in the following manner. The cells were washed with PBS (Sigma) once, and 10 ml of a Trypsin-EDTA solution (Sigma) was added to each culture dish. After the solution was distributed to each of the culture dishes, the cells were detached, and the dishes were allowed to stand for about 5 minutes at 37° C. The detached cells from the dishes were suspended in media, collected into centrifuge tubes, and centrifuged at 1200 rpm for 5 minutes at 4° C., and supernatants were removed. The cells were further washed with PBS, and stored at −80° C. KHEM buffer (100 mM Hepes, 50 mM KCl, 10 mM EGTA, 1.92 mM MgCl2, pH 7.4) containing 1 mM DTT, 1 μg/ml antipain, 1 μg/ml aprotinin, 1 μg/ml leupeptin, 1 μg/ml pepstatin A, 157 μg/ml benzamidine, and 120 μg/ml Pefabloc SC was added to the stored cells, and the contents were moved to a glass homogenizer to be homogenized on ice. The cell suspension was centrifuged at 1000 rpm for 5 minutes at 4° C., and the supernatant was further centrifuged at 14000 rpm for one hour. After centrifugation, the supernatant was dispensed into new tubes as PDE4D enzyme solutions, and stored in a deep freezer.
(3) Determination on Dilution Ratio of PDE4D Enzyme Solutions
The PDE4D enzyme solutions prepared in (2) above were dissolved in 20 mM Tris-HCl solution (pH 7.4) to give 10-, 25-, 50-, 100-, 200-, 400-, and 800-fold dilutions of the enzyme solutions. PDE4D activities were measured according to (4) below. The percentage of catalyzed cAMP to total cAMP was calculated, and such a dilution, in which the percentage was between 10% and 30%, was adopted in the inhibitory study below.
(4) Measurement of PDE4D Inhibitory Activity
Necessary amounts of test compounds were weighed, and 100% dimethylsulfoxide (DMSO) was added thereto to adjust the concentration to 10 mM. The solutions were stored in a freezer as stock solutions of each test compound. After being thawed when required, the solutions were diluted 20-fold with 100% DMSO to give a 500 μM concentration. Further, 10-fold serial dilutions were made with 100% DMSO to prepare test compounds of different concentrations. 2 μl of solutions containing one of each of the test compound were separately added into 1.2 ml tubes in which 23 μl of 20 mM Tris-HCl (pH 7.4) had been placed beforehand. […]
As a reminder, the IC50 is the concentration at which inhibition is half-maximal. With `COc1ccc(-c2nc(CCC(=O)c3ncccc3C)co2)cc1OCCC1CC1` [Example 153, 3-{2-[3-(2-cyclopropylethoxy)-4-methoxyphenyl]oxazol-4-yl}-1-(3-methylpyridin-2-yl)propan-1-one], the IC50 was under 50 nM. For `COc1ccc(-c2nc(CCC(=O)c3ncccc3C)co2)cc1OCC(F)(F)F` [Example 155, 3-{2-[4-methoxy-3-(2,2,2-trifluoroethoxy)phenyl]oxazol-4-yl}-1-(3-methylpyridin-2-yl)propan-1-one] the value was under 50 nM; for `COc1ccc(-c2nc(CCC(=O)c3ncccc3C)co2)cc1OC1Cc2ccccc2C1` [Example 159, 3-{2-[3-(indan-2-yloxy)-4-methoxyphenyl]oxazol-4-yl}-1-(3-methylpyridin-2-yl)propan-1-one], under 50 nM. For `C=CCOc1cc(-c2nc(CCC(=O)c3ccccc3OCC=C)co2)ccc1OC` [Example 166, 3-[2-(3-allyloxy-4-methoxyphenyl)oxazol-4-yl]-1-(2-allyloxyphenyl)propan-1-one] the value was under 50 nM; for `COc1ccc(-c2nc(CCC(=O)c3ccccc3OC)co2)cc1OC(C)C` [Example 169, 3-[2-(3-isopropoxy-4-methoxyphenyl)oxazol-4-yl]-1-(2-methoxyphenyl)propan-1-one], under 50 nM; for `COc1ccc(-c2nc(CCC(=O)c3ccccc3OC)co2)cc1OCC1CC1` [Example 170, 3-[2-(3-cyclopropylmethoxy-4-methoxyphenyl)oxazol-4-yl]-1-(2-methoxyphenyl)propan-1-one], under 50 nM. Next, `CCOc1cc(-c2nc(CCC(=O)c3ccccc3OC)co2)ccc1OC` [Example 172, 3-[2-(3-ethoxy-4-methoxyphenyl)oxazol-4-yl]-1-(2-methoxyphenyl)propan-1-one]: under 50 nM; `C=CCOc1cc(-c2nc(CCC(=O)c3ccccc3OC)co2)ccc1OC` [Example 174, 3-[2-(3-allyloxy-4-methoxyphenyl)oxazol-4-yl]-1-(2-methoxyphenyl)propan-1-one]: under 50 nM. For `CCOc1ccc(-c2nc(CCC(=O)c3ncccc3C)co2)cc1OCC` [Example 181, 3-[2-(3,4-diethoxyphenyl)oxazol-4-yl]-1-(3-methylpyridin-2-yl)propan-1-one], the IC50 was under 50 nM. Next, `CCOc1ccc(-c2nc(CCC(=O)c3ccccc3OCC)co2)cc1OCC` [Example 182, 3-[2-(3,4-diethoxyphenyl)oxazol-4-yl]-1-(2-ethoxyphenyl)propan-1-one]: under 50 nM. Turning to `CCCOc1ccccc1C(=O)CCc1coc(-c2ccc(OC)c(OCC)c2)n1` [Example 195, 3-[2-(3-ethoxy-4-methoxyphenyl)oxazol-4-yl]-1-(2-propoxyphenyl)propan-1-one], the IC50 was under 50 nM.

For the compound `COc1ccc(-c2nc(CCC(=O)c3ccccc3OC(C)C)co2)cc1OCC1CC1` [Example 208, 3-[2-(3-cyclopropylmethoxy-4-methoxyphenyl)oxazol-4-yl]-1-(2-isopropoxyphenyl)propan-1-one], the 50% inhibitory concentration (IC50) was under 50 nM.

Consider `C=CCOc1ccccc1C(=O)CCc1coc(-c2ccc(OC)c(OC(C)C)c2)n1` [Example 224, 1-(2-allyloxyphenyl)-3-[2-(3-isopropoxy-4-methoxyphenyl)oxazol-4-yl]propan-1-one], for which the 50% inhibitory concentration (IC50) was under 50 nM. On to `CCOc1cc(-c2nc(CCC(=O)c3ccccc3OC(F)F)co2)ccc1OC` [Example 274, 1-(2-difluoromethoxyphenyl)-3-[2-(3-ethoxy-4-methoxyphenyl)oxazol-4-yl]propan-1-one], for which the half-inhibitory concentration (IC50) is under 50 nM. For `COc1ccc(-c2nc(CCC(=O)c3ccccc3OCCF)co2)cc1OC(C)C` [Example 275, 1-(2-fluoroethoxyphenyl)-3-[2-(3-isopropoxy-4-methoxyphenyl)oxazol-4-yl]propan-1-one] the value was under 50 nM. Next, `C=CCCOc1cc(-c2nc(CCC(=O)c3ccccc3OCCF)co2)ccc1OC` [Example 276, 3-[2-(3-but-3-enyloxy-4-methoxyphenyl)oxazol-4-yl]-1-[2-(2-fluoroethoxy)phenyl]propan-1-one]: under 50 nM; `COc1ccc(-c2nc(CCC(=O)c3ccccc3OCC(F)F)co2)cc1OC(C)C` [Example 278, 1-[2-(2,2-difluoroethoxy)phenyl]-3-[2-(3-isopropoxy-4-methoxyphenyl)oxazol-4-yl]propan-1-one]: under 50 nM; `CCOc1cc(-c2nc(CCC(=O)c3ccccc3OCC(F)F)co2)ccc1OC` [Example 280, 1-[2-(2,2-difluoroethoxy)phenyl]-3-[2-(3-ethoxy-4-methoxyphenyl)oxazol-4-yl]propan-1-one]: under 50 nM. For `C=CCOc1cc(-c2nc(CCC(=O)c3ccccc3OCC(F)F)co2)ccc1OC` [Example 281, 3-[2-(3-allyloxy-4-methoxyphenyl)oxazol-4-yl]-1-[2-(2,2-difluoroethoxy)phenyl]propan-1-one] the value was under 50 nM. With `COc1ccc(-c2nc(CCC(=O)c3ccccc3OCC(F)F)co2)cc1OCC1CC1` [Example 283, 3-[2-(3-cyclopropylmethoxy-4-methoxyphenyl)oxazol-4-yl]-1-[2-(2,2-difluoroethoxy)phenyl]propan-1-one], the half-inhibitory concentration (IC50) is under 50 nM.

With `COc1ccc(-c2nc(CCC(=O)c3ccccc3OCC(F)F)co2)cc1OCC(F)F` [Example 284, 3-{2-[3-(2,2-difluoroethoxy)-4-methoxyphenyl]oxazol-4-yl}-1-[2-(2,2-difluoroethoxy)phenyl]propan-1-one], the IC50 is under 50 nM. Next, `COc1ccc(-c2nc(CCC(=O)c3ccccc3OCC(F)F)co2)cc1OCC(C)C` [Example 285, 1-[2-(2,2-difluoroethoxy)phenyl]-3-[2-(3-isobutoxy-4-methoxyphenyl)oxazol-4-yl]-propan-1-one]: under 50 nM; `CCOc1ccc(-c2nc(CCC(=O)c3ccccc3OCCF)co2)cc1OCC` [Example 289, 3-[2-(3,4-diethoxyphenyl)oxazol-4-yl]-1-[2-(2-fluoroethoxy)phenyl]propan-1-one]: under 50 nM. Next, `CCOc1ccc(-c2nc(CCC(=O)c3ccccc3OCC(F)F)co2)cc1OCC` [Example 290, 3-[2-(3,4-diethoxyphenyl)oxazol-4-yl]-1-[2-(2,2-difluoroethoxy)phenyl]propan-1-one]: under 50 nM.

With `CCOc1ccc(-c2nc(CCC(=O)c3ccc(F)cc3OCC)co2)cc1OCC` [Example 299, 3-[2-(3,4-diethoxyphenyl)oxazol-4-yl]-1-(2-ethoxy-4-fluorophenyl)propan-1-one], the half-inhibitory concentration (IC50) is under 50 nM. Next, `CCOc1cc(-c2nc(CCC(=O)c3ccc(F)cc3OCC)co2)ccc1OC` [Example 304, 1-(2-ethoxy-4-fluorophenyl)-3-[2-(3-ethoxy-4-methoxyphenyl)oxazol-4-yl]propan-1-one]: under 50 nM. Next, `CCOc1cc(-c2nc(CCC(=O)c3ccc(F)cc3OC(C)C)co2)ccc1OC` [Example 305, 3-[2-(3-ethoxy-4-methoxyphenyl)oxazol-4-yl]-1-(4-fluoro-2-isopropoxyphenyl)propan-1-one]: under 50 nM; `COc1ccc(-c2nc(CCC(=O)c3ncccc3C)co2)cc1OCC(F)F` [Example 309, 3-{2-[3-(2,2-difluoroethoxy)-4-methoxyphenyl]oxazol-4-yl}-1-(3-methylpyridin-2-yl)propan-1-one]: under 50 nM. For `CCC(C)Oc1cc(-c2nc(CCC(=O)c3ncccc3C)co2)ccc1OC` (centres unmarked) [Example 311, 3-[2-(3-sec-butoxy-4-methoxyphenyl)oxazol-4-yl]-1-(3-methylpyridin-2-yl)propan-1-one] the value was under 50 nM.
